Test results as given in PMC10360056, “Chemical Evolution of Amphiphilic Xenopeptides for Potentiated Cas9 Ribonucleoprotein Delivery” (Journal of the American Chemical Society, 2023).

Columns and labels:
HeLa eGFP/tub cells = assay: eGFP knockout study by Cas9 RNP nanocarriers, flow cytometry; assay type: cell-based; settings: 48 h treatment
Procedure: (§1) HeLa WT, HeLa eGFP/tub, HeLa GFPd2 (destabilized eGFP), CT26 eGFP/luc and N2a eGFP/luc cells were grown in DMEM medium supplemented with 10 % FBS, 100 U/mL penicillin, and 100 μg/mL streptomycin. The cells were cultured in ventilated flasks in the cell incubator at 37 °C and 5 % CO2 in a humidified atmosphere. The cells were passaged at a confluency of […]
(§2) Cells were harvested and resuspended in 600 μL of FACS buffer (PBS buffer containing 10 % FBS). The samples were ana-lyzed by flow cytometry on a CytoFLEX S flow cytometer (Beckman Coulter, CA, USA). For eGFP knockout and cellular uptake experiments, 0.6 μL of 1 μg/μL DAPI was added to each sample for differentiating live and dead cells before the measurement. The DAPI signal and BFP fluorescence were detected with 405 nm excitation and 450 nm emission. The eGFP and ATTO488 fluorescence was assayed with 488 nm excitation and 530 nm emission. The ATTO647N fluorescence was assayed with 640 nm excitation and 670 nm emission. Ten thousand of isolated live cells were counted and evaluated. The data were analyzed using FlowJo 7.6.5 by FlowJo, LLC (Becton, Dickinson and Company, USA). […]
(§3) Endosomal escape of Cas9 RNP nanocarriers […]
(§4) Next, the […]
(§5) cells were washed twice with PBS and then fixed with 4 % PFA at RT for 40 min. Afterwards, the cells were washed and incubated with 2 µg/mL DAPI (for staining cell nuclei) for 30 min. Then, the staining solution was removed and 300 μL fresh PBS were added. The slides w ere stored at 4 °C in the dark until the measurement. […]
(§6) Then, the image was conv erted into 8-bit type. The mRuby3/gal8 spots were further determined by Threshold tool, and the number of the spots in the cell cytosol per cell were counted by Analyze Particles tool.
One day prior to the treatments, HeLa eGFP/tub cell s were seeded into 96 -well plates at a density of 5000 cells/well. On the next day, the medium was replaced with 80 μL of fresh medium. 20 μL of Cas9 RNP nanocarriers were added to each well resulting in a series of concentrations of RNP (100, 75, 50, 25, 10, 5, 2.5, 1, 0.5, and 0.1 nM). Lipofectamine CRISPRMAX was tested at the same concentrations of RNP with the preparation procedures as recommended by the manufacturer. The cells were incubated for 48 h. Afterwards, the cells were trypsinized and transfer red to 24-well plates, and incubated for another 72 h. Then, the cells were harvested and prepared for flow cytometry analysis. All experiments were performed in triplicate. eGFP to BFP conversion (HDR) study
One day prior to the treatments, HeLa GFPd2 cel ls were seeded into 96 -well plates at a density of 5000 cells/well. On the next day, the medium was replaced with 80 μL of fresh medium. 20 μL of Cas9 RNP/ssDNA nanocarriers containing different molar ratios of RNP/ssDNA were added to each well resulting i n a series of concentrations of RNP (100, 75, 50, 25, 10, 5, 2.5, 1, 0.5, and 0.1 nM). Lipofectamine CRISPRMAX was tested at the same concentrations of RNP and ssDNA with the prepara-tion procedures as recommended by the manufacturer. The cells were incubat ed for 48 h. Afterwards, the cells were trypsinized and transferred to 24 -well plates, and incubated for another 72 h. Then, the cells were harvested and prepared for flow cytom-etry analysis. […]
Half maximal effective concentration (EC50) values were calculated by GraphPad prism 5. […] All other data were analyzed with GraphPad prism 5 and presented as arithmetic mean ± standard deviation (SD) of at least triplicates. […]

HeLa WT cells = assay: Endocytosis pathway study with inhibitors; assay type: cell-based; settings: 1 mM amiloride 2 h, 75 nM RNP, 4 h, flow cytometry
Procedure: sgRNA amount in naked Cas9/sgRNA ribonucleoproteins (Cas9 RNPs) or Cas9 RNP nanocarriers were determined using a Quant-iTTM RiboGreen® RNA assay kit (Invitrogen, CA, USA). 50 μL of naked Cas9 RNPs or Cas9 RNP nanocarriers con-taining 250 ng Cas9 protein and 50 ng sgRNA were mixed with 50 μL of TE buffer and were added to the 96-well plate. The plate was incubated for 10 min. Afterwards, 100 μL of Ribogreen solution (diluted 1:100 in TE buffer) was added to each well.
The plate was incubated for another 5 min. Ribogreen fluorescence intensity was detected using a microplate reader (Spectra-fluor Plus, Tecan, Männedorf, Switzerland) with excitation and emission wavelength of 485 and 528 nm, respectively. […]
Cells were harvested and resuspended in 600 μL of FACS buffer (PBS buffer containing 10 % FBS). […] The DAPI signal and BFP fluorescence were detected with 405 nm excitation and 450 nm emission. The eGFP and ATTO488 fluorescence was assayed with 488 nm excitation and 530 nm emission. The ATTO647N fluorescence was assayed with 640 nm excitation and 670 nm emission. Ten thousand of isolated live cells were counted and evaluated. The data were analyzed using FlowJo 7.6.5 by FlowJo, LLC (Becton, Dickinson and Company, USA).
Cell viability was determined using an MTT assay. […]
Cellular uptake of Cas9 RNP nanocarriers was evaluated by flow cytometry and confocal laser scanning microscopy (CLSM). […]

HeLa GFPd2 cells = assay: eGFP to BFP conversion (HDR) study, Cas9 RNP/ssDNA co-delivery; assay type: cell-based; settings: for HDR: RNP/ssDNA 1/4, 48 h
Procedure: as §1, §2, §3, §4, §5, §6
One day prior to the treatments, HeLa eGFP/tub cell s were seeded into 96 -well plates at a density of 5000 cells/well. On the next day, the medium was replaced with 80 μL of fresh medium. 20 μL of Cas9 RNP nanocarriers were added to each well resulting in a series of concentrations of RNP (100, 75, 50, 25, 10, 5, 2.5, 1, 0.5, and 0.1 nM). […]

CT26 eGFP/luc cells = assay: eGFP knockout in CT26 eGFP/luc cells; assay type: cell-based, murine; settings: 1 nM RNP, 48 h treatment
Procedure: as §1, §2, §3
(§7) Then, the image was conv erted into 8-bit type. The mRuby3/gal8 spots were further determined by Threshold tool, and the number of the spots in the cell cytosol per cell were counted by Analyze Particles tool. […]

N2a eGFP/luc cells = assay: eGFP knockout in N2a eGFP/luc cells; assay type: cell-based, murine; settings: 1 nM RNP, 48 h treatment
Procedure: as §1, §2, §3, §7

Structure (SMILES)	eGFP knockout (HeLa eGFP/tub cells; 1 nM RNP, N/P 24) [%]	Cas9 RNP uptake after pretreatment with amiloride (macropinocytosis) (HeLa WT cells)	HDR (HeLa GFPd2 cells; HeLa GFPd2, 0.5 nM RNP) [%]	HDR (HeLa GFPd2 cells; HeLa GFPd2, 1 nM RNP) [%]	HDR efficiency (HeLa GFPd2 cells; HeLa GFPd2, 10 nM RNP, RNP/ssDNA ratio 1/8, N/P 12, 48 h) [%]	eGFP knockout (disruption) (HeLa eGFP/tub cells; 0.5 nM (500 pM) RNP) [%]	eGFP knockout (HeLa eGFP/tub cells; RNP concentrations down to 5 nM)	eGFP knockout (CT26 eGFP/luc cells) [%]	eGFP knockout (N2a eGFP/luc cells) [%]
CCCCC/C=C\C/C=C\CCCCCCCC(=O)NCCCC[C@H](NC(=O)CCCCCCC/C=C\C/C=C\CCCCC)C(=O)NCCCC[C@H](NC(=O)CCC(=O)NCCNCCNCCNCCNC(=O)[C@H](Cc1ccc(O)cc1)NC(=O)[C@H](Cc1ccc(O)cc1)NC(=O)[C@H](Cc1ccc(O)cc1)NC(=O)[C@@H](N)CCCCN=[N+]=[N-])C(=O)NCCNCCNCCNCCNC(=O)CCC(=O)N[C@@H](Cc1ccc(O)cc1)C(=O)N[C@@H](Cc1ccc(O)cc1)C(=O)N[C@@H](Cc1ccc(O)cc1)C(=O)O [Stp1-LinA]	~80	blocked	–	–	–	–	–	–	–
CCCCC/C=C\C/C=C\CCCCCCCC(=O)NCCCC[C@H](NC(=O)CCCCCCC/C=C\C/C=C\CCCCC)C(=O)NCCCC[C@H](NC(=O)CN(CC(=O)NCCNCCNCCNCCNC(=O)[C@H](Cc1ccc(O)cc1)NC(=O)[C@H](Cc1ccc(O)cc1)NC(=O)[C@H](Cc1ccc(O)cc1)NC(=O)[C@@H](N)CCCCN=[N+]=[N-])CC(F)(F)F)C(=O)NCCNCCNCCNCCNC(=O)CN(CC(=O)N[C@@H](Cc1ccc(O)cc1)C(=O)N[C@@H](Cc1ccc(O)cc1)C(=O)N[C@@H](Cc1ccc(O)cc1)C(=O)O)CC(F)(F)F [TFE-IDAtp1-LinA]	~88	–	~11	~23	~28	~61	up to 99%	~55	13.4
